Laboratory results taken from article PMC12677653, “Inhibition of Tumor Lipogenesis and Growth by Peptide‐Based Targeting of SREBP Activation” (Advanced Science, 2025).

Design: species or system ICR male mice
Settings: mouse, in vivo, iv, 10 mg/kg
Procedure: Figure 2 LNPs with a 1:1 ratio of TAT to cRGD effectively accumulate in tumor tissues. a) Schematic illustration of LNP composition. b,c) Biodistribution analysis of differently sized LNPs in Huh7 tumor‐bearing BALB/c‐nude mice (n = 3). (b) In vivo fluorescence imaging at 8, 12, 24, and 48 h post‐intravenous injection (10 mg kg^−1). The arrows indicate the tumor site. (c) Ex vivo fluorescence imaging of tumors and major organs harvested 48 h post‐injection. d,e) Optimization of TAT/cRGD peptide coating ratios for tumor‐targeted LNPs (n = 3). (d) In vivo fluorescence imaging at 12, 24, and 48 h post‐injection. The arrows indicate the tumor site. (e) Ex vivo fluorescence imaging of tumors and organs at 48 h. f) Pharmacokinetic profile of LNP@Insig1/2 loop 1 peptide versus free peptide (Insig1/2 loop 1 peptide) following intravenous administration in ICR mice (n = 3, 10 mg kg^−1). Plasma concentration‐time curves were quantified, and pharmacokinetic parameters were calculated: AUC (0–t) (h·ng mL^−1) and AUC (0–∞) (h·ng mL^−1). Data are expressed as mean ± SD (n = 3). Statistical significance was determined by one‐way analysis of variance (ANOVA). * p < 0.05, ** p < 0.01, *** p < 0.001, **** p < 0.0001, ns, no significance. TEXT PRINTED IN THE PICTURE: (f) Peptide: Tlast (h): 0.500±0; T1/2 (h): 0.084±0.0143; AUC(0-t) (h*ng/mL): 326±71.8; AUC(0-∞)(h*ng/mL): 331±73.0; Cl(L/kg/min): 0.518±0.109 | (f) LNP@Insig1/2 loop1 peptide: Tlast (h): 5.00±1.155; T1/2 (h): 0.724±0.183; AUC(0-t) (h*ng/mL): 4928±1425; AUC(0-∞)(h*ng/mL): 4955±1422; Cl(L/kg/min): 0.0337±0.0191 DOUBTS OF THE COPYIST ABOUT THIS PICTURE: Peptide, T1/2 (h): 0.084±0.0143, small print, 8 or 6 and 3 or 5 not certain / Peptide, AUC(0-t): 326±71.8, small print, 6 or 8 not certain / Peptide, AUC(0-∞): 331±73.0, small print, 3 or 8 not certain / Peptide, Cl: 0.518±0.109, small print, 8 and 9 not certain / LNP@Insig1/2 loop1 peptide, T1/2 (h): 0.724±0.183, small print, 8 and 3 not certain / LNP@Insig1/2 loop1 peptide, AUC(0-t): 4928±1425, small print, 9, 8 and 5 not certain / LNP@Insig1/2 loop1 peptide, AUC(0-∞): 4955±1422, small print, 9 and 5 not certain / LNP@Insig1/2 loop1 peptide, Cl: 0.0337±0.0191, small print, 3 and 9 not certain
The pharmacokinetic assay of Insig1/2 loop 1 peptide and LNP@ Insig1/2 loop 1 peptide was performed in ICR male mice. The male mice were administered intravenously (iv) at a dose of 10 mg kg^−1. Then, blood samples were collected into tubes containing EDTA at 0.083, 0.25, 0.5, 1, 2, 4, 8, 24 h (iv) after dosing. After centrifugation at 6000 rpm for 10 min at 4 °C, the obtained plasma samples were stored at ‐20 °C. Subsequently, the plasma samples were analyzed by liquid (LC‐MS/MS) chromatography‐tandem mass spectrometry analysis.

For “RKKRRQRRRLYPCIDSHLGEPHKFKRE [Insig1/2 loop 1 peptide]”, the “AUC(0-t)” value was 326 ± 71.8 ng·h/mL, the “AUC(0-∞)” value was 331 ± 73.0 ng·h/mL and the Cl was 518 ± 109 mL/min/kg. It also gave a Tlast of 0.500 ± 0 h.
